Test results from ChEMBL document CHEMBL1201862, “PubChem BioAssay data set” (2004).
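Assay format: 96-well plates, 48-hour exposure. At the GI50, growth is halved.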 Calls of active or inactive are those of the source. No stated cut-off is given here; in the data, active = GI50 up to about 1.1 µM and inactive = higher.

Experiments:
Test in all cases: NCI anticancer screen, dose series, 48 h
HL-60 = tested on: HL-60
MDA-MB-435 = tested on: MDA-MB-435
BT-549 = tested on: BT-549
MDA-MB-231 = tested on: MDA-MB-231
NCI-H23 = tested on: NCI-H23
HCT-116 = tested on: HCT-116
M14 = tested on: M14
K562 = tested on: K562
Malme-3M = tested on: Malme-3M
SF-268 = tested on: SF-268
LOX IMVI = tested on: LOX IMVI
EKVX = tested on: EKVX
786-0 = tested on: 786-0
HOP-62 = tested on: HOP-62
HT-29 = tested on: HT-29
SN12C = tested on: SN12C
SF-539 = tested on: SF-539
Hs-578T = tested on: Hs-578T
OVCAR-8 = tested on: OVCAR-8
KM12 = tested on: KM12
SNB-75 = tested on: SNB-75
COLO 205 = tested on: COLO 205
OVCAR-5 = tested on: OVCAR-5
U-251 = tested on: U-251
MCF7 = tested on: MCF7
MDA-N = tested on: MDA-N
OVCAR-3 = tested on: OVCAR-3
SR = tested on: SR
SK-MEL-28 = tested on: SK-MEL-28
SNB-19 = tested on: SNB-19
UACC-62 = tested on: UACC-62
NCI-H522 = tested on: NCI-H522
NCI-H226 = tested on: NCI-H226
HOP-92 = tested on: HOP-92
ACHN = tested on: ACHN
RPMI-8226 = tested on: RPMI-8226
SK-MEL-5 = tested on: SK-MEL-5
RXF 393 = tested on: RXF 393
OVCAR-4 = tested on: OVCAR-4
IGROV-1 = tested on: IGROV-1
A498 = tested on: A498
SW-620 = tested on: SW-620
SK-MEL-2 = tested on: SK-MEL-2
MOLT-4 = tested on: MOLT-4
A549 = tested on: A549
HCT-15 = tested on: HCT-15
SF-295 = tested on: SF-295
CCRF-CEM = tested on: CCRF-CEM
CAKI-1 = tested on: CAKI-1
DU-145 = tested on: DU-145
UO-31 = tested on: UO-31
T47D = tested on: T47D
NCI/ADR-RES = tested on: NCI/ADR-RES
SK-OV-3 = tested on: SK-OV-3
PC-3 = tested on: PC-3
TK-10 = tested on: TK-10
UACC-257 = tested on: UACC-257
NCI-H460 = tested on: NCI-H460
HCC 2998 = tested on: HCC 2998

## O=C(CSc1nc2ccc(I)cc2c(=O)n1Cc1ccccc1)Nc1ccccc1
HL-60
  GI50: > 100 µM (inactive)
MDA-MB-435
  GI50: > 100 µM (inactive)
BT-549
  GI50: 20 µM (inactive)
MDA-MB-231
  GI50: 16.5 µM (inactive)
NCI-H23
  GI50: 69.2 µM (inactive)
HCT-116
  GI50: 42.1 µM (inactive)
M14
  GI50: 52.1 µM (inactive)
K562
  GI50: 39.5 µM (inactive)
Malme-3M
  GI50: 6.15 µM (inactive)
SF-268
  GI50: 8.77 µM (inactive)
LOX IMVI
  GI50: 50.7 µM (inactive)
EKVX
  GI50: 3.55 µM (inactive)
786-0
  GI50: 8.57 µM (inactive)
HOP-62
  GI50: 5.7 µM (inactive)
HT-29
  GI50: > 100 µM (inactive)
SN12C
  GI50: 19.6 µM (inactive)
SF-539
  GI50: 3.08 µM (inactive)
Hs-578T
  GI50: 3.65 µM (inactive)
OVCAR-8
  GI50: 6.75 µM (inactive)
KM12
  GI50: 94.4 µM (inactive)
SNB-75
  GI50: 2.94 µM (inactive)
COLO 205
  GI50: > 100 µM (inactive)
OVCAR-5
  GI50: 30.6 µM (inactive)
U-251
  GI50: 14.3 µM (inactive)
MCF7
  GI50: 50.6 µM (inactive)
MDA-N
  GI50: > 100 µM (inactive)
OVCAR-3
  GI50: 10.8 µM (inactive)
SR
  GI50: 11.2 µM (inactive)
SK-MEL-28
  GI50: 35.6 µM (inactive)
SNB-19
  GI50: 17.5 µM (inactive)
UACC-62
  GI50: 46.6 µM (inactive)
NCI-H522
  GI50: 16 µM (inactive)
NCI-H226
  GI50: 11.9 µM (inactive)
HOP-92
  GI50: 19.3 µM (inactive)
ACHN
  GI50: 26 µM (inactive)
RPMI-8226
  GI50: 88.3 µM (inactive)
SK-MEL-5
  GI50: 32.1 µM (inactive)
RXF 393
  GI50: 10 µM (inactive)
OVCAR-4
  GI50: 14.3 µM (inactive)
IGROV-1
  GI50: 25.2 µM (inactive)
A498
  GI50: 15.6 µM (inactive)
SW-620
  GI50: 92.7 µM (inactive)
SK-MEL-2
  GI50: 13.8 µM (inactive)
MOLT-4
  GI50: > 100 µM (inactive)
A549
  GI50: 26.6 µM (inactive)
HCT-15
  GI50: 41.5 µM
SF-295
  GI50: 14.9 µM (inactive)
CCRF-CEM
  GI50: > 100 µM (inactive)
CAKI-1
  GI50: 12.9 µM (inactive)
DU-145
  GI50: 29.9 µM (inactive)
UO-31
  GI50: 0.331 µM (active)
T47D
  GI50: 21.2 µM (inactive)
NCI/ADR-RES
  GI50: 13.8 µM (inactive)
SK-OV-3
  GI50: 12.1 µM (inactive)
PC-3
  GI50: 11.4 µM (inactive)

## CCn1c2ccccc2c2ccc(C3C4C(=O)N(c5cccc6ccccc56)C(=O)C4ON3C(C(N)=O)c3ccccc3)cc21 (configuration not stated)
HL-60
  GI50: 17.7 µM (inactive)
MDA-MB-435
  GI50: 10.2 µM (inactive)
BT-549
  GI50: 14.9 µM (inactive)
TK-10
  GI50: 7.16 µM (inactive)
MDA-MB-231
  GI50: > 25 µM (inactive)
NCI-H23
  GI50: 24 µM (inactive)
HCT-116
  GI50: 13 µM (inactive)
UACC-257
  GI50: 7.73 µM (inactive)
M14
  GI50: 19.1 µM (inactive)
K562
  GI50: 14.8 µM (inactive)
Malme-3M
  GI50: > 25 µM (inactive)
SF-268
  GI50: > 25 µM (inactive)
LOX IMVI
  GI50: 13.2 µM (inactive)
EKVX
  GI50: 12.9 µM (inactive)
786-0
  GI50: 21.2 µM (inactive)
HOP-62
  GI50: > 25 µM (inactive)
HT-29
  GI50: 8.24 µM (inactive)
SN12C
  GI50: 16.7 µM (inactive)
SF-539
  GI50: 7.59 µM (inactive)
NCI-H460
  GI50: 12.9 µM (inactive)
Hs-578T
  GI50: > 25 µM (inactive)
OVCAR-8
  GI50: > 25 µM (inactive)
KM12
  GI50: 9.95 µM (inactive)
SNB-75
  GI50: > 25 µM (inactive)
COLO 205
  GI50: 10.1 µM (inactive)
OVCAR-5
  GI50: 15.1 µM (inactive)
U-251
  GI50: 10.8 µM (inactive)
MCF7
  GI50: 8.38 µM (inactive)
MDA-N
  GI50: 9.1 µM (inactive)
OVCAR-3
  GI50: 13.7 µM (inactive)
SR
  GI50: 9.12 µM (inactive)
SK-MEL-28
  GI50: > 25 µM (inactive)
SNB-19
  GI50: > 25 µM (inactive)
UACC-62
  GI50: 9.04 µM (inactive)
NCI-H522
  GI50: > 25 µM (inactive)
NCI-H226
  GI50: 2.76 µM (inactive)
HOP-92
  GI50: > 25 µM (inactive)
ACHN
  GI50: > 25 µM (inactive)
SK-MEL-5
  GI50: 14.2 µM (inactive)
RXF 393
  GI50: 9.89 µM (inactive)
OVCAR-4
  GI50: 14.6 µM (inactive)
IGROV-1
  GI50: 13.4 µM (inactive)
A498
  GI50: 2.63 µM (inactive)
SW-620
  GI50: 12.8 µM (inactive)
SK-MEL-2
  GI50: 12.4 µM (inactive)
MOLT-4
  GI50: 7.53 µM (inactive)
A549
  GI50: > 25 µM (inactive)
HCT-15
  GI50: 13.3 µM
SF-295
  GI50: > 25 µM (inactive)
CAKI-1
  GI50: 4.66 µM (inactive)
DU-145
  GI50: 14.8 µM (inactive)
UO-31
  GI50: > 25 µM (inactive)
T47D
  GI50: 17.9 µM (inactive)
NCI/ADR-RES
  GI50: > 25 µM (inactive)
SK-OV-3
  GI50: > 25 µM (inactive)
PC-3
  GI50: 14.2 µM (inactive)

## CCOC(=O)C1(C(=O)OCC)OC(C)=NC1(C(=O)OC)C(=O)OC
HL-60
  GI50: 1.15 µM (inactive)
MDA-MB-435
  GI50: > 100 µM (inactive)
BT-549
  GI50: > 31.6 µM (inactive)
TK-10
  GI50: > 100 µM (inactive)
MDA-MB-231
  GI50: > 100 µM (inactive)
NCI-H23
  GI50: > 100 µM (inactive)
HCT-116
  GI50: > 100 µM (inactive)
UACC-257
  GI50: > 100 µM (inactive)
M14
  GI50: > 100 µM (inactive)
K562
  GI50: > 100 µM (inactive)
Malme-3M
  GI50: > 100 µM (inactive)
SF-268
  GI50: > 100 µM (inactive)
LOX IMVI
  GI50: > 100 µM (inactive)
EKVX
  GI50: > 26.2 µM (inactive)
786-0
  GI50: > 100 µM (inactive)
HCC 2998
  GI50: > 100 µM (inactive)
HOP-62
  GI50: > 100 µM (inactive)
HT-29
  GI50: > 100 µM (inactive)
SN12C
  GI50: > 100 µM (inactive)
SF-539
  GI50: > 100 µM (inactive)
NCI-H460
  GI50: > 100 µM (inactive)
Hs-578T
  GI50: > 100 µM (inactive)
OVCAR-8
  GI50: > 100 µM (inactive)
KM12
  GI50: > 100 µM (inactive)
SNB-75
  GI50: > 32.5 µM (inactive)
COLO 205
  GI50: > 100 µM (inactive)
OVCAR-5
  GI50: > 100 µM (inactive)
U-251
  GI50: > 100 µM (inactive)
MCF7
  GI50: > 61.5 µM (inactive)
MDA-N
  GI50: > 100 µM (inactive)
OVCAR-3
  GI50: > 75.3 µM (inactive)
SR
  GI50: > 27.7 µM (inactive)
SK-MEL-28
  GI50: > 100 µM (inactive)
SNB-19
  GI50: > 100 µM (inactive)
UACC-62
  GI50: > 100 µM (inactive)
NCI-H226
  GI50: > 62.5 µM (inactive)
ACHN
  GI50: > 100 µM (inactive)
SK-MEL-5
  GI50: > 53.7 µM (inactive)
RXF 393
  GI50: > 100 µM (inactive)
OVCAR-4
  GI50: > 100 µM (inactive)
IGROV-1
  GI50: > 100 µM (inactive)
A498
  GI50: > 100 µM (inactive)
SW-620
  GI50: > 100 µM (inactive)
SK-MEL-2
  GI50: > 100 µM (inactive)
MOLT-4
  GI50: > 87.1 µM (inactive)
A549
  GI50: > 100 µM (inactive)
HCT-15
  GI50: > 100 µM
SF-295
  GI50: > 100 µM (inactive)
CCRF-CEM
  GI50: > 100 µM (inactive)
CAKI-1
  GI50: > 100 µM (inactive)
DU-145
  GI50: > 100 µM (inactive)
UO-31
  GI50: > 100 µM (inactive)
T47D
  GI50: > 100 µM (inactive)
NCI/ADR-RES
  GI50: > 100 µM (inactive)
SK-OV-3
  GI50: > 100 µM (inactive)
PC-3
  GI50: > 100 µM (inactive)
